One experiment concerns the target mTOR (Homo sapiens (Human), UniProt P42345). Kind of experiment: KdELECT assay for binding affinity to mTOR. The procedure: (§1) Compounds were tested using a KdELECT assay. Kinase-tagged T7 phage strains were prepared in an E. coli host derived from the BL21 strain. E. coli were grown to log-phase and infected with T7 phage and incubated with shaking at 32° C. until lysis. The lysates were centrifuged and filtered to remove cell debris. The remaining kinases were produced in HEK-293 cells and subsequently tagged with DNA for qPCR detection. Streptavidin-coated magnetic beads were treated with biotinylated small molecule ligands for 30 minutes at room temperature to generate affinity resins for kinase assays. The liganded beads were blocked with excess biotin and washed with blocking buffer (SeaBlock (Pierce), 1% BSA, 0.05% Tween 20, 1 mM DTT) to remove unbound ligand and to reduce non-specific binding. Binding reactions were assembled by combining kinases, liganded affinity beads, and test compounds in 1×binding buffer (20% SeaBlock, 0.17×PBS, 0.05% Tween 20, 6 mM DTT). Test compounds were prepared as 111X stocks in 100% DMSO. Kd values were determined using an 11-point 3-fold compound dilution series with three DMSO control points. All compounds for Kd measurements are distributed by acoustic transfer (non-contact dispensing) in 100% DMSO. The compounds were then diluted directly into the assays such that the final concentration of DMSO was 0.9%. All reactions performed in polypropylene 384-well plate. Each was a final volume of 0.02 mL. The assay plates were incubated at room temperature with shaking for 1 hour and the affinity beads were washed with wash buffer (1×PBS, 0.05% Tween 20). The beads were then re-suspended in elution buffer (1×PBS, 0.05% Tween 20, 0.5 μM nonbiotinylated affinity ligand) and incubated at room temperature with shaking for 30 minutes. The kinase concentration in the eluates was measured by qPCR.

For another experiment, the target named is BTK (Homo sapiens (Human), UniProt Q06187). Kind of experiment: KdELECT assay for binding affinity to BTK. In outline: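 Competition binding of test compound against bead-immobilized biotinylated ligand; kinase as T7 phage fusion or HEK-293-expressed DNA-tagged protein. 11-point 3-fold dilution, 0.9% DMSO final, 1 h room temperature with shaking. Bound kinase eluted with 0.5 μM non-biotinylated ligand and quantified by qPCR; Kd derived.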
Chain of BTK (Q06187 whole entry, the tested form may be a part): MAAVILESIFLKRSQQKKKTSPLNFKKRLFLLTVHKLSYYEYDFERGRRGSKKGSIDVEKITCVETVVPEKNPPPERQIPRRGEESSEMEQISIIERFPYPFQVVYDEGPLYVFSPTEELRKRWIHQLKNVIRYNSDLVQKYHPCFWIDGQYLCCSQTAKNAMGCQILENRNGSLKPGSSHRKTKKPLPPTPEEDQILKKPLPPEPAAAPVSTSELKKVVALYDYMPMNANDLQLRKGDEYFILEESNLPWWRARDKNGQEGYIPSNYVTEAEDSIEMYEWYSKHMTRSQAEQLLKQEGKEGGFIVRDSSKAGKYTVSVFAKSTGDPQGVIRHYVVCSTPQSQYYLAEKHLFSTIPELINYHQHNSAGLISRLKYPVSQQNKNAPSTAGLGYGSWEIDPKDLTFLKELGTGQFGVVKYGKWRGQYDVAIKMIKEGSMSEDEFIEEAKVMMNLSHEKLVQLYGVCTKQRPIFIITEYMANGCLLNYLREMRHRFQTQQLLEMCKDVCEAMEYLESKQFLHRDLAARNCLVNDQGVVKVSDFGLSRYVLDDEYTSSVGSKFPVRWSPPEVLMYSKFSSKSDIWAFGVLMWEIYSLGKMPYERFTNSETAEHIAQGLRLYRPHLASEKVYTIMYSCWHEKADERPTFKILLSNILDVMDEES

The target of another experiment is CDK1 (Homo sapiens (Human), UniProt P06493). As to the kind of experiment: KdELECT assay for binding affinity to CDK1. The procedure:
as §1

Another experiment concerns the target BRD4-BD2 (Homo sapiens (Human), UniProt O60885). Kind of experiment: bromoKdELECT assay for binding affinity to BRD4-BD2. The procedure: (§2) Compounds were tested using a bromoKdELECT assay. T7 phage strains displaying bromodomains were grown in parallel in 24-well blocks in an E. coli host derived from the BL21 strain. E. coli were grown to log-phase and infected with T7 phage from a frozen stock (multiplicity of infection=0.4) and incubated with shaking at 32° C. until lysis (90-150 minutes). The lysates were centrifuged (5,000×g) and filtered (0.2 μm) to remove cell debris. Streptavidin-coated magnetic beads were treated with biotinylated small molecule or acetylated peptide ligands for 30 minutes at room temperature to generate affinity resins for bromodomain assays. The liganded beads were blocked with excess biotin and washed with blocking buffer (SeaBlock (Pierce), 1% BSA, 0.05% Tween 20, 1 mM DTT) to remove unbound ligand and to reduce nonspecific phage binding. Binding reactions were assembled by combining bromodomains, liganded affinity beads, and test compounds in 1×binding buffer (17% SeaBlock, 0.33×PBS, 0.04% Tween 20, 0.02% BSA, 0.004% Sodium azide, 7.4 mM DTT). Test compounds were prepared as 1000X stocks in 100% DMSO. Kds were determined using an 11-point 3-fold compound dilution series with one DMSO control point. All compounds for Kd measurements are distributed by acoustic transfer (non-contact dispensing) in 100% DMSO. The compounds were then diluted directly into the assays such that the final concentration of DMSO was 0.09%. All reactions performed in polypropylene 384-well plates. Each was a final volume of 0.02 ml. The assay plates were incubated at room temperature with shaking for 1 hour and the affinity beads were washed with wash buffer (1×PBS, 0.05% Tween 20). The beads were then resuspended in elution buffer (1×PBS, 0.05% Tween 20, 2 μM non-biotinylated affinity ligand) and incubated at room temperature with shaking for 30 minutes. The bromodomain concentration in the eluates was measured by qPCR.

The target of another experiment is BRD4-BD1 (Homo sapiens (Human), UniProt O60885). Kind of experiment: bromoKdELECT assay for binding affinity to BRD4-BD1. The protocol:
as §2

The target in the next experiment is KIF11 (Homo sapiens (Human), UniProt P52732). Kind of experiment: Enzyme-coupled ATPase assay for inhibition of KIF11. It counts as biochemical. The conditions noted are these: KIF11 ATPase rate, 1 mM ATP. The procedure:
The ATPase rate for Kif11 was monitored using an enzyme-coupled assay. Porcine brain microtubules (Cat #MT002) were purchased from Cytoskeleton (Denver, CO) and polymerized as per manufacturer's instructions and stored at 1 mg/ml at −80° C. GST-tagged Kif11/Eg5 (Cat #EG01-XL) and the Kinesin ELIPA Biochem Kit (Cat #BK060) was also purchased from Cytoskeleton. Taxol, microtubules, 7-methylthioguanosine (MESG), and purine nucleoside phosphorylase (PNP) were added to final concentrations of […], 0.05 mg/mL, […], 1U/m, 1 mM in EPLIA Reaction Buffer and allowed to incubate at room temperature for 15 minutes under rocking. Kif11 was then added at a final concentration of […] and allowed to incubate at room temperature for an additional 15 minutes. Master mix ([…]) was added to a black 384-well plate (Corning 3575), to which […] of DMSO or compound were added to appropriate wells. Plates were incubated at room temperature for 2 hours. ATPase reactions were initiated by addition of 1 mM ATP and monitored by OD340 every 1 minute over the course of 2 hours. The rate of the reaction was taken from the linear part of the resulting curve. IC50 was determined by plotting inhibitor concentration v. ATPase rate.

Chain of CDK1 (P06493 whole entry): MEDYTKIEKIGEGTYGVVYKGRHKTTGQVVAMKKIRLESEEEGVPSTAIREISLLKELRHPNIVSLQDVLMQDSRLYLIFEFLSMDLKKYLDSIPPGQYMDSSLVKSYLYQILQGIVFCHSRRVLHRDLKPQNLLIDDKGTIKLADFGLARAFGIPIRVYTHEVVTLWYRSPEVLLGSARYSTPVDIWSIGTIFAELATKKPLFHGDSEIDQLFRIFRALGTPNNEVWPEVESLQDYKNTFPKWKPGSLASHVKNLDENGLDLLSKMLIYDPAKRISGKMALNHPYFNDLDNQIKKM
Chain of KIF11 (P52732 1-368): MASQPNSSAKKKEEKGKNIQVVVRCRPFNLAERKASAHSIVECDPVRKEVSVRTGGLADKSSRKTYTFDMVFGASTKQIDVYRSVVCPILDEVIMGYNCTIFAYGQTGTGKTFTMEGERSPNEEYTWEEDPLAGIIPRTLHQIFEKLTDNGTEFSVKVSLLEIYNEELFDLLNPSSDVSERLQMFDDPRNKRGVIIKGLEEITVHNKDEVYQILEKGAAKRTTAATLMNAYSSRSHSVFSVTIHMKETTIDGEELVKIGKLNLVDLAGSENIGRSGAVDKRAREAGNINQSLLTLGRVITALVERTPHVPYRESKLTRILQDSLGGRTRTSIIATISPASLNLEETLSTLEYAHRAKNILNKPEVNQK

The Kd is the constant that tells how readily two partners part at equilibrium. Lower therefore signals a tighter complex. With `C[C@@H]1COCCN1c1nc(N2CCOC[C@H]2C)c2ccc(-c3cccc(C(=O)NCCCCCCCCOc4ccc(C(=O)NC5C(C)(C)C(Oc6ccc(C#N)c(Cl)c6)C5(C)C)cc4)c3)nc2n1` (stereo partly drawn) [Compound I-8, 3-[2,4-bis[(3R)-3-methylmorpholin-4-yl]pyrido[2,3-d]pyrimidin-7-yl]-N-[8-[4-[[3-(3-chloro-4-cyano-phenoxy)-2,2,4,4-tetramethyl-cyclobutyl]carbamoyl]phenoxy]octyl]benzamide], the Kd at mTOR was over 2500 nM; on BTK, 50 to 500 nM.

With `NC(=O)c1c(F)cccc1Nc1nc(Nc2ccc(S(=O)(=O)NCCOCCOC/C=C/C(=O)N3CCC[C@@H](n4nc(-c5ccc(Oc6ccccc6)cc5)c5c(N)ncnc54)C3)cc2)ncc1Br` [Compound I-13, 2-[[2-[4-[2-[2-[(E)-4-[(3R)-3-[4-amino-3-(4-phenoxyphenyl)pyrazolo[3,4-d]pyrimidin-1-yl]-1-piperidyl]-4-oxo-but-2-enoxy]ethoxy]ethylsulfamoyl]anilino]-5-bromo-pyrimidin-4-yl]amino]-6-fluoro-benzamide], the Kd at CDK1 lay in the range of 500 to 2500 nM; on BTK, 50 to 500 nM.

As to `NC(=O)c1c(F)cccc1Nc1nc(Nc2ccc(S(=O)(=O)NCCOCCOCCOCCOCCOCCOC/C=C/C(=O)N3CCC[C@@H](n4nc(-c5ccc(Oc6ccccc6)cc5)c5c(N)ncnc54)C3)cc2)ncc1Br` [Compound I-15], the Kd was 50 to 500 nM on CDK1 and under 50 nM on BTK.

For `CN(C/C=C/C(=O)N1CCC[C@@H](n2nc(-c3ccc(Oc4ccccc4)cc3)c3c(N)ncnc32)C1)CCCN1CCN(CCCNS(=O)(=O)c2ccc(Nc3ncc(Br)c(Nc4cccc(F)c4C(N)=O)n3)cc2)CC1` [Compound I-18, 2-[[2-[4-[3-[4-[3-[[(E)-4-[(3R)-3-[4-amino-3-(4-phenoxyphenyl)pyrazolo[3,4-d]pyrimidin-1-yl]-1-piperidyl]-4-oxo-but-2-enyl]-methyl-amino]propyl]piperazin-1-yl]propylsulfamoyl]anilino]-5-bromo-pyrimidin-4-yl]amino]-6-fluoro-benzamide], the Kd at CDK1 and at BTK was under 50 nM throughout.

Turning to `Cc1sc2c(c1C)C(c1ccc(Cl)cc1)=N[C@@H](CC(=O)NCCOCCOC/C=C/C(=O)N1CCC[C@@H](n3nc(-c4ccc(Oc5ccccc5)cc4)c4c(N)ncnc43)C1)c1nnc(C)n1-2` [Compound I-24, N-[2-[2-[(E)-4-[(3R)-3-[4-amino-3-(4-phenoxyphenyl)pyrazolo[3,4-d]pyrimidin-1-yl]-1-piperidyl]-4-oxo-but-2-enoxy]ethoxy]ethyl]-2-[(9S)-7-(4-chlorophenyl)-4,5,13-trimethyl-3-thia-1,8,11,12-tetrazatricyclo[8.3.0.02.6]trideca-2 (6),4,7,10,12-pentaen-9-yl]acetamide], the Kd at BRD4-BD2 was under 50 nM; at BTK, under 50 nM; on BRD4-BD1 it was 50 to 500 nM.

On to `Cc1sc2c(c1C)C(c1ccc(Cl)cc1)=N[C@@H](CC(=O)NCCOCCOCCOCCOCCOCCOC/C=C/C(=O)N1CCC[C@@H](n3nc(-c4ccc(Oc5ccccc5)cc4)c4c(N)ncnc43)C1)c1nnc(C)n1-2` [Compound I-26, N-[2-[2-[2-[2-[2-[2-[(E)-4-[(3R)-3-[4-amino-3-(4-phenoxyphenyl)pyrazolo[3,4-d]pyrimidin-1-yl]-1-piperidyl]-4-oxo-but-2-enoxy]ethoxy]ethoxy]ethoxy]ethoxy]ethoxy]ethyl]-2-[(9S)-7-(4-chlorophenyl)-4,5, 13-trimethyl-3-thia-1,8, 11,12-tetrazatricyclo[8.3.0.0^2,6]trideca-2 (6),4,7,10, 12-pentaen-9-yl]acetamide], for which the Kd was under 50 nM at BRD4-BD2, under 50 nM at BTK and 50 to 500 nM at BRD4-BD1.

As for `Cc1sc2c(c1C)C(c1ccc(Cl)cc1)=N[C@@H](CC(=O)NCCCCCCCC/C=C/C(=O)N1CCC[C@@H](n3nc(-c4ccc(Oc5ccccc5)cc4)c4c(N)ncnc43)C1)c1nnc(C)n1-2` [Compound I-28, N—[(E)-11-[(3R)-3-[4-amino-3-(4-phenoxyphenyl)pyrazolo[3,4-d]pyrimidin-1-yl]-1-piperidyl]-11-oxo-undec-9-enyl]-2-[(9S)-7-(4-chlorophenyl)-4,5,13-trimethyl-3-thia-1,8,11,12-tetrazatricyclo[8.3.0.0^2,6]trideca-2 (6),4,7,10,12-pentaen-9-yl]acetamide], the Kd on BRD4-BD2 was 500 to 2500 nM; at BTK it was 500 to 2500 nM; on BRD4-BD1, over 2500 nM.

With `Cc1sc2c(c1C)C(c1ccc(Cl)cc1)=N[C@@H](CC(=O)NCCCN1CCN(CCCN(C)C/C=C/C(=O)N3CCC[C@@H](n4nc(-c5ccc(Oc6ccccc6)cc5)c5c(N)ncnc54)C3)CC1)c1nnc(C)n1-2` [Compound I-29, N-[3-[4-[3-[[(E)-4-[(3R)-3-[4-amino-3-(4-phenoxyphenyl)pyrazolo[3,4-d]pyrimidin-1-yl]-1-piperidyl]-4-oxo-but-2-enyl]-methyl-amino]propyl]piperazin-1-yl]propyl]-2-[(9S)-7-(4-chlorophenyl)-4,5, 13-trimethyl-3-thia-1,8, 11,12-tetrazatricyclo[8.3.0.0^2,6]trideca-2 (6),4,7,10,12-pentaen-9-yl]acetamide], the Kd at BRD4-BD2, at BTK and at BRD4-BD1 was under 50 nM each time.

Turning to `Cc1sc2c(c1C)C(c1ccc(Cl)cc1)=N[C@@H](CC(=O)NCCOCCOCCOc1ccc(C(=O)NC3C(C)(C)C(Oc4ccc(C#N)c(Cl)c4)C3(C)C)cc1)c1nnc(C)n1-2` (some centres unmarked) [Compound I-32], the Kd at BRD4-BD2 lay in the range of 50 to 500 nM; on BRD4-BD1, 500 to 2500 nM.

Consider `CCc1cnn2c(NCc3ccc(OCCOCCOCCOCCOCCN(C)C/C=C/C(=O)N4CCC[C@@H](n5nc(-c6ccc(Oc7ccccc7)cc6)c6c(N)ncnc65)C4)nc3)cc(N3CCCC[C@H]3CCO)nc12` [Compound I-43], for which the Kd at CDK1 was over 2500 nM; on BTK, under 50 nM.

For the compound `CCc1cnn2c(NCc3ccc(OCCOCCOCCOCCOCCOCCOCCOCCOCCOC/C=C/C(=O)N4CCC[C@@H](n5nc(-c6ccc(Oc7ccccc7)cc6)c6c(N)ncnc65)C4)nc3)cc(N3CCCC[C@H]3CCO)nc12` [Compound I-47], on CDK1, the Kd is over 2500 nM.

By IC50 is commonly meant the concentration that inhibits the measured activity by half. Lower therefore signals greater potency. `CN(OCCOCCOCCOCCOCCOC/C=C/C(=O)N1CCC[C@@H](n2nc(-c3ccc(Oc4ccccc4)cc3)c3c(N)ncnc32)C1)C(=O)N1N=C(c2cc(F)ccc2F)SC1(CCCN)c1ccccc1` (some centres unmarked) [Compound I-49]: at KIF11, the IC50 was in the range of 50 to 500 nM.

The values above are taken from patent publication US20250136619A1, “HETEROBIFUNCTIONAL COMPOUNDS AND THEIR USE IN TREATING DISEASE” (HALDA THERAPEUTICS OPCO, INC., priority 2021, published 2025).
